The assay has as its system anaesthetised, open-chest beagle dogs. In words: in vivo inotropic and vasodilatory activity, bolus intravenous injection. The settings on record: for ED30 / ED50: Canis lupus familiaris, bolus intravenous injection; for ED30: read-out: ED30D.B.P. (effective intravenous dose to produce a 30% decrease in diastolic blood pressure); for ED50: read-out: ED50L.V. dP/dt (effective intravenous dose of compound to produce a 50% increase in L.V. dP/dt); for Selectivity ED50L.V. dP/dt / ED30D.B.P. / Tr (duration of inotropic response): intravenous; for Tr (duration of inotropic response): time in which a 50% increase in L.V. dp/dt would return to pre-dose levels. How it is done:
Determination of in vivo Inotropic and Vasodilatory Activity Compounds according to the present invention were tested in vivo in comparison with the compound 2-(2-methoxy-4-methylsulphinylphenyl)imidazo[1,2-a]pyrazine (hereinafter referred to as compound 'X' disclosed in UK patent specification No. 2 132 203 A. The compounds were tested in anaesthetised, open-chest beagle dogs by bolus intravenous injection to produce a dose-related positive inotropic stimulation (as measured by the increase in the maximum rate of change of the left ventricular pressure -,L.V. dp/dt) over the dose range of 0.003 - 3.0 mg/kg. This was accompanied by a dose-related increase in aortic blood flow, and a fall in systemic blood pressure (see Table below). In these preparations, the duration of inotropic response was estimated by measuring the time in which a 50% increase in L.V. dp/dt would return to pre-dose levels. The duration is shown in the table below and for some of the compounds is given as a range. [table]

Experimental findings from EP0166609A2, “Aryl derivatives of heterobicyclic compounds” (THE WELLCOME FOUNDATION LIMITED, priority 1984, dated 1986) are described below.

Some results are limits rather than exact numbers.

On to `COc1cc([S+](C)[O-])ccc1-c1cn2ccnc(OC)c2n1` (stereo not drawn) [Example 3, 8-methoxy-2-(2-methoxy-4-methylsulphinylphenyl)imidazo[1,2-a]pyrazine], for which the ED30 amounted to 1.17 mg/kg, the ED50 is 0.91 mg/kg, the “Selectivity ED50L.V. dP/dt / ED30D.B.P.” value was 0.08 and the “Tr (duration of inotropic response)” value was 60 min.

As for `COc1cc(C(C)=O)ccc1-c1cn2ccncc2n1` [Example 7, 2-(2-methoxy-4-acetylphenyl)imidazo[1,2-a]pyrazine], the ED30 is 0.1 mg/kg, the ED50 worked out at 0.03 mg/kg, the “Selectivity ED50L.V. dP/dt / ED30D.B.P.” value is reported as 0.30 and the “Tr (duration of inotropic response)” value was determined as 10 min.

For the molecule `COc1cc(OS(C)(=O)=O)ccc1-c1cn2ccnc(OC)c2n1` [Example 4, 8-methoxy-2-(2-methoxy-4-methylsulphonyloxyphenyl)imidazo[1,2-a]pyrazine], the ED30 came out at 0.06 mg/kg, the ED50 came to 0.07 mg/kg, the “Selectivity ED50L.V. dP/dt / ED30D.B.P.” value amounted to 1.22 and the “Tr (duration of inotropic response)” value lay within 45 to 60 min.

Turning to `COc1cc(C(N)=O)ccc1-c1cn2ccncc2n1` [Example 1, 2-(2-Methoxy-4-carbamoylphenyl)-imidazo[1,2-a]pyrazine], the ED30 was found to be 0.05 mg/kg, the ED50 was 0.02 mg/kg, the “Selectivity ED50L.V. dP/dt / ED30D.B.P.” value is 0.4 and the “Tr (duration of inotropic response)” value was over 30 min.

Regarding `COc1cc([S+](C)[O-])ccc1-c1cn2ccncc2n1` (stereo not drawn) [X, 2-(2-methoxy-4-methylsulphinylphenyl)imidazo[1,2-a]pyrazine, reference compound], the ED30 came to 0.028 mg/kg, the ED50 came to 0.75 mg/kg, the “Selectivity ED50L.V. dP/dt / ED30D.B.P.” value is given as 26.8 and the “Tr (duration of inotropic response)” value is 5 min.

Take `COc1cc(C(N)=O)ccc1-c1cn2ccnc(OC)c2n1.Cl` [Example 5, 2-(2-methoxy-4-carbamoylphenyl)-8-methoxy-imidazo[1,2-a]pyrazine hydrochloride]: the ED30 is 0.15 mg/kg, the ED50 was 0.06 mg/kg, the “Selectivity ED50L.V. dP/dt / ED30D.B.P.” value came to 0.39 and the “Tr (duration of inotropic response)” value was 30 to 45 min.
